From patent US20150274719A1, “AMINO-SUBSTITUTED IMIDAZO[1,2-A]PYRIDINECARBOXAMIDES AND THEIR USE” (BAYER PHARMA AKTIENGESELLSCHAFT, priority 2012, published 2015)

Biological target: T1, recombinant guanylate cyclase reporter cell line (Rattus norvegicus, UniProt P19686+P20595)
T1 construct: expressed in transfected cells; host or cells: recombinant reporter cell line
T1 sequence (P19686 1-690): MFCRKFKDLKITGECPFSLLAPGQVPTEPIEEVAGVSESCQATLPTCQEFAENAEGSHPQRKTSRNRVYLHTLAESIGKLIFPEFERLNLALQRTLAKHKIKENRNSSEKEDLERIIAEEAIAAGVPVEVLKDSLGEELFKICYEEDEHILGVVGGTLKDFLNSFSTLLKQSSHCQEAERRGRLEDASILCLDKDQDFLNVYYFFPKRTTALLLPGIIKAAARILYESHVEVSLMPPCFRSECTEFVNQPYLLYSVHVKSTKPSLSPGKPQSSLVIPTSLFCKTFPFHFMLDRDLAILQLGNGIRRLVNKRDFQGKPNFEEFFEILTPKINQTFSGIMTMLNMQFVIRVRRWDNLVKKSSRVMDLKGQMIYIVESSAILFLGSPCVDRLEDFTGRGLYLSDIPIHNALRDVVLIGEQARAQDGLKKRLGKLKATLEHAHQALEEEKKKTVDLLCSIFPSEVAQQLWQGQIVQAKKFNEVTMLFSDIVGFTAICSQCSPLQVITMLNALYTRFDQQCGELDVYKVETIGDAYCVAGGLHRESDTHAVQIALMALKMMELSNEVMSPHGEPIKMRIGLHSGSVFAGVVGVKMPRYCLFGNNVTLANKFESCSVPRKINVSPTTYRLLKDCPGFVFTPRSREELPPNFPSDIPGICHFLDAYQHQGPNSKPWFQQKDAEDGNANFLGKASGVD
T1 sequence (P20595 1-619): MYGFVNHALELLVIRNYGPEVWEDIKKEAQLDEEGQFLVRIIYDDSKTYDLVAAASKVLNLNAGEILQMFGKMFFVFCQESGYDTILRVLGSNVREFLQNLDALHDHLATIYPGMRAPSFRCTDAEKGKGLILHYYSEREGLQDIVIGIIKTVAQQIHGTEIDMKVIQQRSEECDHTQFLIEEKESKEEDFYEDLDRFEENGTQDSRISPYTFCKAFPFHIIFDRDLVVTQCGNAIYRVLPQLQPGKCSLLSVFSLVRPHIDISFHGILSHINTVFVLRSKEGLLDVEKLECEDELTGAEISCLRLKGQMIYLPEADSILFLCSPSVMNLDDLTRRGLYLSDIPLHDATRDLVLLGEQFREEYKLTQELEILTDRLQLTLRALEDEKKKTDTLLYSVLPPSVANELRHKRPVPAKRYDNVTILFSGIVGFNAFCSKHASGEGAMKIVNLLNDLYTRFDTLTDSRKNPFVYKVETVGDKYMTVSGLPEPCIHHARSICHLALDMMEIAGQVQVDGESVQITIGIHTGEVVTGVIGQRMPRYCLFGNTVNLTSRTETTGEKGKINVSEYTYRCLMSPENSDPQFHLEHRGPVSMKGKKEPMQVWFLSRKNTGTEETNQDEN
Assay: Action on recombinant guanylate cyclase reporter cell line
Format: cell-based
Conditions: in some cases mean values from individual determinations
Method: B-2. Action on Recombinant Guanylate Cyclase Reporter Cell Line
The cellular action of the compounds according to the invention is determined on a recombinant guanylate cyclase reporter cell line, as described in F. Wunder et al., Anal. Biochem. 339, 104-112 (2005).
Representative MEC values (MEC=minimal effective concentration) for the compounds according to the invention are shown in the following table (in some cases as mean values obtained from individual determinations): […]

SMILES	MEC (minimal effective concentration) [µM]
Cc1nc2c(OCc3c(F)cccc3F)cccn2c1C(=O)NCC(N)C(F)(F)F (racemic) [Example 207, rac-N-(2-Amino-3,3,3-trifluoropropyl)-8-[(2,6-difluorobenzyl)oxy]-2-methylimidazo[1,2-a]-pyridine-3-carboxamide]	1.00
COCC(C)(N)CNC(=O)c1c(C)nc2c(OCc3c(F)cccc3F)cccn12 (racemic) [Example 213, rac-N-(2-Amino-3-methoxy-2-methylpropyl)-8-[(2,6-difluorobenzyl)oxy]-2-methylimidazo[1,2-a]-pyridine-3-carboxamide]	1.00
Cc1nc2c(OCc3c(F)cccc3F)cc(Cl)cn2c1C(=O)NCC(N)COC(C)C (racemic) [Example 217, rac-N-(2-Amino-3-isopropoxypropyl)-6-chloro-8-[(2,6-difluorobenzyl)oxy]-2-methylimidazo[1,2-a]pyridine-3-carboxamide]	1.00
Cc1nc2c(OCc3c(F)cccc3F)cc(Cl)cn2c1C(=O)NCC(C)(N)CC(C)C (racemic) [Example 225, rac-N-(2-Amino-2,4-dimethylpentyl)-6-chloro-8-[(2,6-difluorobenzyl)oxy]-2-methylimidazo[1,2-a]pyridine-3-carboxamide]	0.30
Cc1nc2c(OCc3c(F)cccc3F)cccn2c1C(=O)NCC(N)C(F)(F)C(F)F (racemic) [Example 230, rac-N-(2-Amino-3,3,4,4-tetrafluorobutyl)-8-[(2,6-difluorobenzyl)oxy]-2-methylimidazo[1,2-a]-pyridine-3-carboxamide]	1.00
Cc1nc2c(OCc3c(F)cccc3F)cc(Cl)cn2c1C(=O)NCC(C)(N)C(F)(F)F (racemic) [Example 236, rac-N-(2-Amino-3,3,3-trifluoro-2-methylpropyl)-6-chloro-8-[(2,6-difluorobenzyl)oxy]-2-methyl-imidazo[1,2-a]pyridine-3-carboxamide]	0.30
CCCC(C)(N)CNC(=O)c1c(C)nc2c(OCc3c(F)cccc3F)cc(Cl)cn12 (racemic) [Example 244, rac-N-(2-Amino-2-methylpentyl)-6-chloro-8-[(2,6-difluorobenzyl)oxy]-2-methylimidazo[1,2-a]-pyridine-3-carboxamide]	0.30

The next lines start with the values.

MEC (minimal effective concentration) [µM]	SMILES
0.10	Cc1cc(OCc2c(F)cccc2F)c2nc(C)c(C(=O)NCC(C)(N)CC(C)C)n2c1 (racemic) [Example 218, rac-N-(2-Amino-2,4-dimethylpentyl)-8-[(2,6-difluorobenzyl)oxy]-2,6-dimethylimidazo[1,2-a]-pyridine-3-carboxamide]
0.10	CCCC(C)(N)CNC(=O)c1c(C)nc2c(OCc3c(F)cccc3F)cc(C)cn12 (racemic) [Example 232, rac-N-(2-Amino-2-methylpentyl)-8-[(2,6-difluorobenzyl)oxy]-2,6-dimethylimidazo[1,2-a]pyridine-3-carboxamide]
0.30	Cc1cc(OCc2c(F)cccc2F)c2nc(C)c(C(=O)NCC3CCc4ccccc4N3)n2c1 (racemic) [Example 235, rac-8-[(2,6-Difluorobenzyl)oxy]-2,6-dimethyl-N-(1,2,3,4-tetrahydroquinolin-2-ylmethyl)imidazo-[1,2-a]pyridine-3-carboxamide]
0.30	Cc1cc(OCc2c(F)cccc2F)c2nc(C)c(C(=O)NCC(C)(N)C(F)(F)F)n2c1 (racemic) [Example 239, rac-N-(2-Amino-3,3,3-trifluoro-2-methylpropyl)-8-[(2,6-difluorobenzyl)oxy]-2,6-dimethyl-imidazo[1,2-a]pyridine-3-carboxamide]
